ChEMBL document CHEMBL4507291 (2021)

What was measured:
[1] = biological target: T1, Tyrosine-protein kinase ZAP-70 (Homo sapiens) (UniProt P43403)
T1 sequence (whole entry): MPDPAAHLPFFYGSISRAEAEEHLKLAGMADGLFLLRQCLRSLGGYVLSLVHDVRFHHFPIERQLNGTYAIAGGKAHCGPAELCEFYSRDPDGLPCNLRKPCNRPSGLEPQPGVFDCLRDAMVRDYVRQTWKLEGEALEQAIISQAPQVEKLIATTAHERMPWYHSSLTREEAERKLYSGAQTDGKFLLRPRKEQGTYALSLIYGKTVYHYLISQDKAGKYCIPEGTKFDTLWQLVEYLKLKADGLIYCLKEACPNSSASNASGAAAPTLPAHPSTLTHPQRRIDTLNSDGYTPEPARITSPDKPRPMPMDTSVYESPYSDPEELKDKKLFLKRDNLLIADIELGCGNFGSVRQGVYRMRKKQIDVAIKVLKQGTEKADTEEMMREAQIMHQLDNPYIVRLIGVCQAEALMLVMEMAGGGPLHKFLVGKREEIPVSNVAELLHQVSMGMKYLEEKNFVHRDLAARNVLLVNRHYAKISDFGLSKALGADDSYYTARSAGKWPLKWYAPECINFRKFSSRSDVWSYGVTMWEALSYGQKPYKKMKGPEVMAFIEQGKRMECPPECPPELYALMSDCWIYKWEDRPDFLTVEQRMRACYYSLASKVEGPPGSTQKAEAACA

[2] = biological target: Serine/threonine-protein kinase LATS2 (Homo sapiens) (UniProt Q9NRM7)
[3] = biological target: Sigma intracellular receptor 2 (Homo sapiens, UniProt Q5BJF2); conditions: Compound concentration 10.0 uM
Sequence of Sigma intracellular receptor 2 (Q5BJF2 whole entry): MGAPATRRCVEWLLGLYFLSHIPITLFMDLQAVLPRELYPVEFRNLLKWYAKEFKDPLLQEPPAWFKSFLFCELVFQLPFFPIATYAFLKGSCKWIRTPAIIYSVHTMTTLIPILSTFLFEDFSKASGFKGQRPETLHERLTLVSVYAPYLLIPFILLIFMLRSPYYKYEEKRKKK

[4] = biological target: Macrophage-stimulating protein receptor (Homo sapiens) (UniProt Q04912)
[5] = biological target: Mitogen-activated protein kinase kinase kinase 6 (Homo sapiens) (UniProt O95382)
Sequence of Mitogen-activated protein kinase kinase kinase 6 (Homo sapiens) (O95382 whole entry): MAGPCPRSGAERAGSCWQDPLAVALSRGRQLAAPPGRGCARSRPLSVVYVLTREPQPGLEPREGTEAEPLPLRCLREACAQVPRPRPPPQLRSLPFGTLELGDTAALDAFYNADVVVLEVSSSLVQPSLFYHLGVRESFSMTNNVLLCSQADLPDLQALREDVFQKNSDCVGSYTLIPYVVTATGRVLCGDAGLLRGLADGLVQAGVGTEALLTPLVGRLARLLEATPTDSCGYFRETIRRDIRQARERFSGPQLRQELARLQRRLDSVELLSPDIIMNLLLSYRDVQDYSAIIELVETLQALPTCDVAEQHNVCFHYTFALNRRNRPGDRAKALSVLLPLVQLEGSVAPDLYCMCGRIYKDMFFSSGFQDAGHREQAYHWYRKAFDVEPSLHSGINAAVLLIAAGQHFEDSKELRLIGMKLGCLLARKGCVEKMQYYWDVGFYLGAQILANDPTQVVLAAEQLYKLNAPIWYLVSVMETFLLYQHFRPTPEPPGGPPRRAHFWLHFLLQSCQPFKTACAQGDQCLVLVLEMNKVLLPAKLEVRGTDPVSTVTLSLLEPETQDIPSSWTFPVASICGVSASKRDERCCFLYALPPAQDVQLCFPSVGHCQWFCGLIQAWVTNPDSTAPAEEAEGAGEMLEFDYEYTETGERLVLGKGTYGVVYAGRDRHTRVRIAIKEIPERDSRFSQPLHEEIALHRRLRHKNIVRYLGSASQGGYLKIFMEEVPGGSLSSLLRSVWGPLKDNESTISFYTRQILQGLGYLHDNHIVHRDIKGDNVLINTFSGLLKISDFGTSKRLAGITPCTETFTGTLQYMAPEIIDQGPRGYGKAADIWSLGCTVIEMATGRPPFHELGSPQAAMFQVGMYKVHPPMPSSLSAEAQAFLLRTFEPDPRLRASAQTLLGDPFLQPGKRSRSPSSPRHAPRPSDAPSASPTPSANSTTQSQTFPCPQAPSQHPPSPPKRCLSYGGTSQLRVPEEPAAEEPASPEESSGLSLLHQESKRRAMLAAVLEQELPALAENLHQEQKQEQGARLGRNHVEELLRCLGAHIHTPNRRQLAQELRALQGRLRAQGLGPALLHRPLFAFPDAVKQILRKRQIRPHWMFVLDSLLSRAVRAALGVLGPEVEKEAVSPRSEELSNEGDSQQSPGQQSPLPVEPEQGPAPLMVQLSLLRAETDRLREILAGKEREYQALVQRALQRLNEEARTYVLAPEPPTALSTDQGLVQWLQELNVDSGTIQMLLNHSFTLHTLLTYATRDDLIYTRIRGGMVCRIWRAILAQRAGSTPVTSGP

[6] = biological target: Tyrosine-protein kinase Srms (Homo sapiens) (UniProt Q9H3Y6)
[7] = biological target: T2, Alpha-1A adrenergic receptor (Homo sapiens) (UniProt P35348); conditions: Compound concentration 10.0 uM
T2 sequence (whole entry): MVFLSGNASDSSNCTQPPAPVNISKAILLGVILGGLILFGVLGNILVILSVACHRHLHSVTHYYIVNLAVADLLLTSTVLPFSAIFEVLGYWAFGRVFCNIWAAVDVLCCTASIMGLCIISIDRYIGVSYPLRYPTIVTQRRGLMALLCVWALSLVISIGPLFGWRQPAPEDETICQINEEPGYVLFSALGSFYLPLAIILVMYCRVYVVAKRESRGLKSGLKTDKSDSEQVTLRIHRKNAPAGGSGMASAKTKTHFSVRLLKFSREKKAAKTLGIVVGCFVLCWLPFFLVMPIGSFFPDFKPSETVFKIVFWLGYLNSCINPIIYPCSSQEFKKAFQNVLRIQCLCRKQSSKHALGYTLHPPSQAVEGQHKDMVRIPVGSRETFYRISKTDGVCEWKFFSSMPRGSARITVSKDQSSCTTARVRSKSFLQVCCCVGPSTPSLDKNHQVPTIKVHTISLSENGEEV

[8] = biological target: Serine/threonine-protein kinase 33 (Homo sapiens) (UniProt Q9BYT3)
Sequence of Serine/threonine-protein kinase 33 (Homo sapiens) (Q9BYT3 whole entry, looked up): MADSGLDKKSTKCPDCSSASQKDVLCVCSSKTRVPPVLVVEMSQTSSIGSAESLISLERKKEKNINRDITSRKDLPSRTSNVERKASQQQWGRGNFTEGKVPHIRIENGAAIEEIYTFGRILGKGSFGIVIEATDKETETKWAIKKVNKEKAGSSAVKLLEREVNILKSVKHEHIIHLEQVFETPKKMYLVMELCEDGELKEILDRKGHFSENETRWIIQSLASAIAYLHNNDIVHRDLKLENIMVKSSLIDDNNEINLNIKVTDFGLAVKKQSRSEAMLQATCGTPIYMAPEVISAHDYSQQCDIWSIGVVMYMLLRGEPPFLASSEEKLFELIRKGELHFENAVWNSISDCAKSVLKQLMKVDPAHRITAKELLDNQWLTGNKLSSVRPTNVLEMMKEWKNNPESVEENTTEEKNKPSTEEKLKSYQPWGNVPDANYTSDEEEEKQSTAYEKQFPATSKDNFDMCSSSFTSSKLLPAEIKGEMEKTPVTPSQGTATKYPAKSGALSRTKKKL

[9] = system: Receptor-type tyrosine-protein kinase FLT3 (Homo sapiens), P36888 [D835H]
[10] = biological target: Dual specificity protein kinase CLK4 (Homo sapiens) (UniProt Q9HAZ1)
[11] = biological target: Serine/threonine-protein kinase PAK 2 (Homo sapiens) (UniProt Q13177)
[12] = system: Epidermal growth factor receptor (Homo sapiens), P00533 [L861Q]
[13] = biological target: Serine/threonine-protein kinase STK11 (Homo sapiens) (UniProt Q15831)
Sequence of Serine/threonine-protein kinase STK11 (Homo sapiens) (Q15831 whole entry): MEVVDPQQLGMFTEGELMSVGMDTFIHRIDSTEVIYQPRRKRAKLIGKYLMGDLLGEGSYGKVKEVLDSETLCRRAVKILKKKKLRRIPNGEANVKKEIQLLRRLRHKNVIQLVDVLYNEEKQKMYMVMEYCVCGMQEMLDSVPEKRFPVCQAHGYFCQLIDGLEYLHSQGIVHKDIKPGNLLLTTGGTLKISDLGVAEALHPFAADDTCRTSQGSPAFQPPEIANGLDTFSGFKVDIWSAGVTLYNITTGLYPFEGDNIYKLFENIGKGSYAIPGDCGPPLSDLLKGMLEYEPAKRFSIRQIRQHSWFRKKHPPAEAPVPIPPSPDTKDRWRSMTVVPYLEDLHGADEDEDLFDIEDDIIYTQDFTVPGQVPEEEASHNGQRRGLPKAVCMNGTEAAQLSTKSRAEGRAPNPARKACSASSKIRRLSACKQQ

[14] = biological target: STE20/SPS1-related proline-alanine-rich protein kinase (Homo sapiens) (UniProt Q9UEW8)
[15] = biological target: Mitogen-activated protein kinase 6 (Homo sapiens) (UniProt Q16659)
[16] = biological target: Serine/threonine-protein kinase NIM1 (Homo sapiens) (UniProt Q8IY84)
Sequence of Serine/threonine-protein kinase NIM1 (Homo sapiens) (Q8IY84 whole entry): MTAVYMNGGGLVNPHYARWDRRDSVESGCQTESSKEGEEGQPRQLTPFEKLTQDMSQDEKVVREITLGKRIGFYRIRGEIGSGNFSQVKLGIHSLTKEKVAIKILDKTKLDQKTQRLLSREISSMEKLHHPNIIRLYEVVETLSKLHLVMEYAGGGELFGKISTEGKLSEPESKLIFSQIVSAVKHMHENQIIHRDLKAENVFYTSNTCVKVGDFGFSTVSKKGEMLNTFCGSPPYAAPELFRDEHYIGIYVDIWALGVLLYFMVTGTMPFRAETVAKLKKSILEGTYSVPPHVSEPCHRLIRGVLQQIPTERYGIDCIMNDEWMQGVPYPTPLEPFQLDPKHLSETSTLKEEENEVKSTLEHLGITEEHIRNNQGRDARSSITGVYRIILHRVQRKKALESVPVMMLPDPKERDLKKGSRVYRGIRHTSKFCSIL

[17] = biological target: T3, Tyrosine-protein kinase Tec (Homo sapiens) (UniProt P42680)
T3 sequence (whole entry): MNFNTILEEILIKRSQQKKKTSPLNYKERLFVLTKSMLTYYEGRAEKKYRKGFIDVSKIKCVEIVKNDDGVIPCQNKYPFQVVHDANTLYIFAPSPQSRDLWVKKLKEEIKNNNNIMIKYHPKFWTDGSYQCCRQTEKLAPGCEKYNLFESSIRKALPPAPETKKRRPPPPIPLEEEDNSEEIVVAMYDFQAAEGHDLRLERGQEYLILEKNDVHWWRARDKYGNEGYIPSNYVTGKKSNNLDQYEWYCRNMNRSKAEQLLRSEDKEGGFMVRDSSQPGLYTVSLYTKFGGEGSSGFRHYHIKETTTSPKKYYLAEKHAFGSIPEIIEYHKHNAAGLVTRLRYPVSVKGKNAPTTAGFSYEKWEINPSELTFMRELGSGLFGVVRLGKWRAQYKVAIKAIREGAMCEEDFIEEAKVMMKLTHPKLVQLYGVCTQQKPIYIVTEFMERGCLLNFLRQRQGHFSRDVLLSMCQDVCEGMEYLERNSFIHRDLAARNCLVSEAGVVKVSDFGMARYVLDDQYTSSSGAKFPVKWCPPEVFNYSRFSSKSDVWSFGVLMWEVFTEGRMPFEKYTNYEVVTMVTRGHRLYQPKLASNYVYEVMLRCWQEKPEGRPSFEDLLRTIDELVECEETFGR

[18] = biological target: Dual specificity tyrosine-phosphorylation-regulated kinase 2 (Homo sapiens) (UniProt Q92630)
Sequence of Dual specificity tyrosine-phosphorylation-regulated kinase 2 (Homo sapiens) (Q92630 whole entry): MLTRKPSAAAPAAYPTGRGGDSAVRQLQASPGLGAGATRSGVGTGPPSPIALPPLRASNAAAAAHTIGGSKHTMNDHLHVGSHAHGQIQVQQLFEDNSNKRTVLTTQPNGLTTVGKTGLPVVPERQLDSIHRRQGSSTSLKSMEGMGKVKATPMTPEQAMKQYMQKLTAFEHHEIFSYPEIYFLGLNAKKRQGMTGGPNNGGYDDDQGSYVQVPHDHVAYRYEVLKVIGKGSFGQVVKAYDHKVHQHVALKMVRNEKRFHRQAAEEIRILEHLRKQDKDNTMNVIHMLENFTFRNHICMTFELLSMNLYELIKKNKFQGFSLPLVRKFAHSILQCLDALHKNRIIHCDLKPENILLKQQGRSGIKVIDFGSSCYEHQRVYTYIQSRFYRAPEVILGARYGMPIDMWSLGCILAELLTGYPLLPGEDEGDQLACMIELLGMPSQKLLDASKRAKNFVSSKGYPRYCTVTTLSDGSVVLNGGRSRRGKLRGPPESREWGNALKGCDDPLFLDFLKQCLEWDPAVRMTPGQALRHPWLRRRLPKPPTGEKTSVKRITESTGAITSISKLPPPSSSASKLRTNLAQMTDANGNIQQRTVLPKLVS

[19] = biological target: Serine/threonine-protein kinase 24 (Homo sapiens) (UniProt Q9Y6E0)
[20] = system: Mast/stem cell growth factor receptor Kit (Homo sapiens), P10721 [D816H]
Sequence of Mast/stem cell growth factor receptor Kit (Homo sapiens), P10721 [D816H] (P10721 whole entry D816H): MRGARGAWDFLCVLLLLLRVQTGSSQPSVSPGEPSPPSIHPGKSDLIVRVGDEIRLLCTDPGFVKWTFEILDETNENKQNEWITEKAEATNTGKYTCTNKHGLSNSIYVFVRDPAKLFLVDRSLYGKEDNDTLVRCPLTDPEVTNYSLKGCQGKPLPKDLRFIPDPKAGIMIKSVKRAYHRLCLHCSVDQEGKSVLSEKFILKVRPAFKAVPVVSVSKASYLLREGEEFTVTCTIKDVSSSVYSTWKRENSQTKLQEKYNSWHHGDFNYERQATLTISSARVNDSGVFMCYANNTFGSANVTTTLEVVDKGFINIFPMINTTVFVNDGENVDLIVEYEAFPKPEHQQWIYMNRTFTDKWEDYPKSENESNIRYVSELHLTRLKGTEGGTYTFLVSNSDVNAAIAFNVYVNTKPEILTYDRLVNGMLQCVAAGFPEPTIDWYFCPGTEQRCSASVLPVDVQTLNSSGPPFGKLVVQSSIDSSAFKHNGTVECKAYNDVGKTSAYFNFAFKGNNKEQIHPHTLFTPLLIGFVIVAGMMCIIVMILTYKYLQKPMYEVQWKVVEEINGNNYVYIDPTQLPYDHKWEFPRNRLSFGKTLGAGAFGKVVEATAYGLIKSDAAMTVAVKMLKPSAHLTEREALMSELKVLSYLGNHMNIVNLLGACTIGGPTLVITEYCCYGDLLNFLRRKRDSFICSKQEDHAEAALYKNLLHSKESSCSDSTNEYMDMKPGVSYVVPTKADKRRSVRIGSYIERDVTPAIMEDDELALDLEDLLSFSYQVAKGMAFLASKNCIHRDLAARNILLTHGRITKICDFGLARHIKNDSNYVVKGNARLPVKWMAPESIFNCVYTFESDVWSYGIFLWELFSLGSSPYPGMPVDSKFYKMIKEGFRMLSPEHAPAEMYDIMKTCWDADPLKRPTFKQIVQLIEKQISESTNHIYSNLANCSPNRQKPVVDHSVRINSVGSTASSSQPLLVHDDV

[21] = biological target: Fibroblast growth factor receptor 1 (Homo sapiens) (UniProt P11362)
[22] = biological target: D(4) dopamine receptor (Homo sapiens) (UniProt P21917); conditions: Compound concentration 10.0 uM
Sequence of D(4) dopamine receptor (Homo sapiens) (P21917 whole entry): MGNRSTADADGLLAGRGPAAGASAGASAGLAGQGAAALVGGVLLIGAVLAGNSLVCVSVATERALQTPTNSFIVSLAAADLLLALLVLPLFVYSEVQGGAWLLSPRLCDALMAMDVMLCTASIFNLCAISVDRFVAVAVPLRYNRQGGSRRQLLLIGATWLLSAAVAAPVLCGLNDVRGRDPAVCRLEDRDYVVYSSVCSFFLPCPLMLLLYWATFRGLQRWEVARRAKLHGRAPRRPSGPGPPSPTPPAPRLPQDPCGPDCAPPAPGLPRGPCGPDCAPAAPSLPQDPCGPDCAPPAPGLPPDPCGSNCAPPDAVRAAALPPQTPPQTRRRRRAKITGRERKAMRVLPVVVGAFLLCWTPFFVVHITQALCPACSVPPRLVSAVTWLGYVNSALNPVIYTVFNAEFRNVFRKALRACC

[23] = Compound concentration 1000.0 nM
[24] = Compound concentration 100.0 nM

## C[C@@H]1CN(c2cc(-c3nn(C)c4ccc(OC5(C)CC5)cc34)ncn2)C[C@H](C)O1 [MLi-2-NC]
[1]; [23]
  residual activity: 100%
[2]; [23]
  residual activity: 58%
[3]
  inhibition: 90.4%
[4]; [23]
  residual activity: 100%
[5]; [23]
  residual activity: 76%
[6]; [23]
  residual activity: 83%
[7]
  inhibition: -3.6%
[8]; [23]
  residual activity: 86%
[9]; [23]
  residual activity: 84%
[10]; [23]
  residual activity: 100%
[11]; [23]
  residual activity: 90%
[12]; [23]
  residual activity: 83%
[13]; [23]
  residual activity: 94%
[14]; [23]
  residual activity: 70%
[15]; [23]
  residual activity: 97%
[16]; [23]
  residual activity: 74%
[17]; [23]
  residual activity: 100%
[18]; [23]
  residual activity: 83%
[19]; [23]
  residual activity: 79%
[20]; [23]
  residual activity: 64%
[21]; [23]
  residual activity: 100%
[22]
  inhibition: -2.65%

## C[C@@H]1CN(c2cc(-c3n[nH]c4ccc(OC5(C)CC5)cc34)ncn2)C[C@H](C)O1 [MLi-2]
[1]; [24]
  residual activity: 83%
[2]; [24]
  residual activity: 68%
[3]
  inhibition: 50.4%
[4]; [24]
  residual activity: 100%
[5]; [24]
  residual activity: 59%
[6]; [24]
  residual activity: 59%
[7]
  inhibition: 3.49%
[8]; [24]
  residual activity: 86%
[9]; [24]
  residual activity: 100%
[10]; [24]
  residual activity: 87%
[11]; [24]
  residual activity: 95%
[12]; [24]
  residual activity: 50%
[13]; [24]
  residual activity: 83%
[14]; [24]
  residual activity: 85%
[15]; [24]
  residual activity: 91%
[16]; [24]
  residual activity: 72%
[17]; [24]
  residual activity: 74%
[18]; [24]
  residual activity: 98%
[19]; [24]
  residual activity: 96%
[20]; [24]
  residual activity: 67%
[21]; [24]
  residual activity: 100%
[22]
  inhibition: -4.87%
